The results in this text go back to publication PMC7033200, “Annexin A1 accounts for an anti-inflammatory binding target of sesamin metabolites” (NPJ Science of Food, 2020).

Structures are written as SMILES.

Assay [1] concerns extracellular ANX A1 release from U937 cells. Briefly: Extracellular release of ANX A1 from U937 cells (ELISA). Particulars: for cellular release of ANX A1: PMA/LPS-treated U937 cells. The format is cell-based, human. The protocol:
(§1) For enzyme-linked immunosorbent assay (ELISA) assays, U937 cells (control or ANX A1 KD) were seeded on 96-well plates and stimulated by adding 100 nmol L^−1 phorbol myristate acetate (Sigma-Aldrich, MO, USA) for 24 h. The cells were treated for 12 h with LPS (100 ng mL^−1) with or without adding the indicated sesamin, SC1, or SC2 and/or PD98059 concentrations. The cell culture supernatants were collected, and TNFα or ANX A1 production was measured using ELISA (TNFα: R&D Systems; ANX A1: USCN, Wuhan, China) according to the manufacturer’s instructions.
Background: In an ELISA, binding on a coated surface is turned into a signal by an enzyme label.

For assay [2], the system named is CCl4-treated ANX A1-KO mice. Briefly: CCl4-induced liver damage and inflammation in ANX A1-KO mice. The format is in vivo, mouse (C57BL/6J). The text has this: ANX A1-deficient mice (C57BL/6J) were generated by homologous recombination at Trans Genic Inc. (Fukuoka, Japan), as shown in Fig. S4. The vector targeting ANX A1 for deleting the coding region (exons 3–6) containing selectable neomycin-resistance (Neo) and PGK promoter genes was used. The targeting vector contained the 3.0 kbp of the 5′ arm flanking sequence and 4.5 kbp of the 3′ arm flanking sequence. The PGK-Neor gene was deleted by crossing with the CAG-flp mouse.[58]
(§2) All protocols for animal procedures were approved by the Ethics Committee of Animal Experiments in accordance with the Internal Regulations on Animal Experiments at Keio University and Suntory Holdings Ltd, which are based on the Law for the Humane Treatment and Management of Animals (Law No. 105, 1 October 1973, as amended on 30 May 2014). Male C57BL/6J wild-type (WT) mice were purchased from CLEA Japan Inc. (Tokyo, Japan). WT and ANX A1-KO mice at 7 to 9 weeks of age received an intraperitoneal injection of vehicle (corn oil, 16.7 mL kg^−1) or CCl4 (50 μL kg^−1). To evaluate the effect of sesamin, vehicle (olive oil, 5 mL kg^−1) or sesamin (25 mg kg^−1) was orally administered twice at 1 h before and 7 h after CCl4 injection. To evaluate the effect of SC1, vehicle (ethanol dissolved in corn oil at a ratio of 1:19, 5 mL kg^−1) or SC1 (50 mg kg^−1) was intraperitoneally administered twice as mentioned above. Mice were euthanized after 12 or 24 h […] CCl4 injection before collecting blood and liver samples. Plasma AST, ALT, or LDH were measured using L-type AST J2, L-type ALT J2 or L-type LD J (Wako, Osaka, Japan), respectively. The liver tissues were fixed with 10% formalin, embedded in paraffin sectioned to 3–4 μm thickness and mounted on slides. Liver sections were de-paraffinized with xylene and re-hydrated with alcohols. The staining was performed with eosin solution for the cytoplasm and Mayer’s haematoxylin solution or monoclonal galectin-3 antibody (1:100, BioLegend, CA, USA). Slides were observed under a light microscope (BX52, Olympus, Japan), and images were analysed using LUMINA VISION (Mitani Corporation, Japan).
(§3) Production of TNFα or MCP-1 in the plasma or liver was measured using a V-PLEX Proinflammatory Panel 1 Mouse Kit or U-PLEX Mouse MCP-1 assay Kit (Meso Scale Diagnostics, USA), respectively. Plasma or liver tissues homogenised in phosphate-buffered saline (Nacalai Tesque) were applied into the pre-coated plate with antibodies against target proteins before labelling with secondary antibodies conjugated to chemiluminescence. The signal intensity was measured using an analyser (SECTOR Imager 6000, Meso Scale Diagnostics, USA).
(§4) Total RNA of the liver was extracted using an RNeasy Mini Kit (Qiagen, USA), and the cDNAs were prepared using High-Capacity cDNA Reverse Transcription Kits (Thermo Fisher Scientific, USA). Quantitative reverse transcription-PCR was performed according to the manufacturer’s instructions using the TaqMan® Gene Expression Assay System (Applied Biosystems, USA) with a 7900HT Fast Real Time PCR System (Applied Biosystems, USA). The levels of target mRNAs were normalised using the expression of the 18S ribosomal RNA. The primer IDs are listed in Supplementary Table 1.

The subject of the next assay is CCl4-treated WT mice. Nature of the assay: CCl4-induced liver damage and inflammation in WT mice. The class given is in vivo, mouse (C57BL/6J).
Excerpt: as §2, §3, §4

The next assay addresses T1, ANX A1 (Homo sapiens, UniProt P04083).
T1 construct: The ANX A1 cDNA fragment, full-length (1–346 a.a.) or deletion mutants; GST (pGEX-6P-1) (N, cleaved yes); made in house; host or cells: Escherichia coli BL21 (DE3)
T1 sequence (P04083 1-346): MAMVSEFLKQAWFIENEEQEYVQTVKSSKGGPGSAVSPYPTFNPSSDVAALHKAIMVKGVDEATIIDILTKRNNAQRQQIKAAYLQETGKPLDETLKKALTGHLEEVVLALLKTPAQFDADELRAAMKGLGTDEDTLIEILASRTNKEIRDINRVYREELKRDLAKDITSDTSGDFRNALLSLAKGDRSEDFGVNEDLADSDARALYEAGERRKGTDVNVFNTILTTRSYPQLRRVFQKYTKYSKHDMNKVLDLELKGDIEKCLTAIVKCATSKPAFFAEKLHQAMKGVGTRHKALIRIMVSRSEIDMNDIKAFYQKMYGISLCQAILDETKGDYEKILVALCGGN
Briefly: Isothermal titration calorimetry (ITC) binding to ANX A1. The protocol:
ITC experiments were performed at 298 K with ITC buffer (20 mmol L^−1 Tris-HCl (pH 7.5), 100 mmol L^−1 NaCl, 2% dimethyl sulfoxide) using a MicroCal iTC200 (Malvern). SC1 or SC2 were dissolved at 2 mmol L^−1 with ITC buffer and titrated into 1 μmol L^−1 of ANX A1 protein with or without 2 mmol L^−1 EDTA (for apo-ANX A1) or 3 mmol L^−1 CaCl2 (for Ca^2+-bound ANX A1). The titration was performed by injecting 2 µL of the syringe solution at intervals of 120 s. The binding isotherms were analysed using SEDPHAT.[54]

Assay [3] has as its system TNFα production in U937 cells. Briefly: TNFα production in PMA/LPS-stimulated U937 cells (ELISA). The class given is cell-based, human. The following applies: for inhibition of TNFα production induced by LPS and PMA: U937 cells, dose-dependent. The method, then: as §1
Assay [4] has as its system TNFα production in ANX A1 KD U937 cells. Nature of the assay: TNFα production in ANX A1 knockdown U937 cells (ELISA). The format is cell-based, human. Particulars: U937 cells with knocked down ANX A1. The protocol:
U937 cells were maintained in RPMI-1640 medium (Gibco/Thermo Fisher Scientific, MA, USA) supplemented with 10% fetal bovine serum. To generate a stable ANX A1-KD cell line, lentivirus vectors encoding a control or shRNA sequence targeting ANX A1 (Supplementary Methods) were transfected into 293FT cells. The lentivirus was prepared according to the manufacturer’s instructions (Invitrogen, MA, USA). U937 cells were infected with the lentivirus, and a stable cell line was selected by maintaining the cells in medium containing 10 μg mL^−1 blasticidin (Invitrogen) for 1 week.
as §1

For assay [5], the system named is phosphorylated (Ser27) ANX A1 in U937 cells. Briefly: ANX A1 Ser27 phosphorylation in U937 cells (western blotting). The format is cell-based, human. The following applies: treated 1 h prior to LPS treatment. The protocol: For analyses of ANX A1 phosphorylation, the U937 cells treated as above were lysed with NP40 lysis buffer (20 mmol L^−1 Tris-HCl (pH 7.5), 150 mmol L^−1 NaCl, 1% NP40), and the lysates (10 μg) were subjected to SDS-PAGE, followed by western blotting using antibodies against ANX A1 or phosphorylated (Ser27) ANX A1 (dilution: 1:1000).

Setting [6] is: sesamin 25 mg kg^−1 orally twice, 24 h, ANX A1-null.
The mark [7] stands for this setting: sesamin 25 mg kg^−1 twice, 12 h, qPCR, ANX A1-null.
Where [8] appears, read: sesamin 25 mg kg^−1 twice, 12 h after CCl4, ANX A1-null.
Setting [9] is: sesamin 25 mg kg^−1 twice, 24 h, qPCR, ANX A1-null.
The mark [10] stands for this setting: sesamin 25 mg kg^−1 twice, 12 h, qPCR, WT.
The mark [11] stands for this setting: sesamin 25 mg kg^−1 twice, 12 h after CCl4, WT.
Where [12] appears, read: sesamin 25 mg kg^−1 twice, 24 h, qPCR, WT.

For `c1cc2c(cc1[C@H]1OC[C@H]3[C@@H]1CO[C@@H]3c1ccc3c(c1)OCO3)OCO2` [Sesamin, (7α,7′α,8α,8′α)-3,4:3′,4′-bis(methylenedioxy)-7,9′:7′,9-diepoxylignane], the “cellular release of ANX A1” value in assay [1] was “not”. For the same compound, in assay [2] (setting [6]), the “plasma ALT” value is on record as “not observed” and the “plasma LDH” value is “not observed”. In assay [2] (sesamin 25 mg kg^−1 orally twice, H&E, ANX A1-null), the “liver injury around the central vein (histology)” value is “not”. For the same compound, in assay [2] (setting [7]), the “MCP-1 mRNA expression in the liver” value is on record as “not observed”, the “TNFα mRNA expression in the liver” value is “not observed” and the “galectin-3 mRNA expression in the liver” value is recorded as “not observed”. In addition, in assay [2] (setting [8]), the “MCP-1 protein in the plasma” value was “not”, the “TNFα protein in the liver” value is “not” and the “TNFα protein in the plasma” value is “not”. Also, in assay [2] (sesamin 25 mg kg^−1 twice, 24 h, histology, ANX A1-null), the “accumulation of galectin-3-positive cells in the liver” value is listed as “not”. For the same compound, in assay [2] (setting [9]), the “liver mRNA expression of Col1a1” value was “not” and the “liver mRNA expression of αSMA” value is “not”. In addition, the “plasma ALT” value in the assay on CCl4-treated WT mice (sesamin 25 mg kg^−1 orally twice (1 h before, 7 h after CCl4), 24 h, WT) is “significantly suppressed”. Also, in the assay with CCl4-treated WT mice (sesamin 25 mg kg^−1 orally twice, 24 h, WT), the “plasma LDH” value is reported as “significantly suppressed”. Also, the “liver injury around the central vein (histology)” value with CCl4-treated WT mice (sesamin 25 mg kg^−1 orally twice, H&E, WT) is reported as “suppressed liver injury”. Also, in the assay with CCl4-treated WT mice (setting [10]), the “MCP-1 mRNA expression in the liver” value was “significantly suppressed”, the “TNFα mRNA expression in the liver” value is recorded as “significantly suppressed” and the “galectin-3 mRNA expression in the liver” value is on record as “significantly suppressed”. In the assay with CCl4-treated WT mice (setting [11]), the “MCP-1 protein in the liver” value was “significantly suppressed”, the “MCP-1 protein in the plasma” value is listed as “significantly suppressed”, the “TNFα protein in the liver” value is “significantly suppressed” and the “TNFα protein in the plasma” value is given as “significantly suppressed”. Further, the “accumulation of galectin-3-positive cells in the liver” value with CCl4-treated WT mice (sesamin 25 mg kg^−1 twice, 24 h, histology, WT) was “suppressed”. In addition, in the assay on CCl4-treated WT mice (setting [12]), the “liver mRNA expression of Col1a1” value is on record as “suppressed” and the “liver mRNA expression of αSMA” value was “suppressed”. The “binding activity with ANX A1 using ITC analysis” value at ANX A1 (ITC) is listed as “unable to detect any binding activity”. In addition, in assay [3], the “inhibition of TNFα production induced by LPS and PMA” value is recorded as “little inhibitory effect”.

The Kd is a measure of binding affinity in units of concentration. As usually defined, the IC50 is the point on the concentration scale where inhibition reaches its midpoint. Read a high IC50 as lower potency. For the compound `Oc1ccc(C2OCC3C(c4ccc(O)c(O)c4)OCC23)cc1O` (stereo not drawn) [SC2, (7α,7′α,8α,8′α)-7,9′:7′,9-diepoxylignane-3,3′,4,4′-tetraol], the “cellular release of ANX A1” value in assay [1] is “significantly enhanced”. In addition, the “inhibitory effects on TNFα production in ANX A1 knockdown cells” value in assay [4] is reported as “disappeared”. At ANX A1 (3 mmol L^-1 Ca^2+, ITC), this compound displayed a dH of -308.15 kcal/mol and a dS of -1010.16 cal/mol K. Also, on ANX A1 (Ca^2+ form of ANX A1, 3 mmol L^-1 CaCl2, ITC, 298 K, read-out: binding affinity (Kd)), the equilibrium dissociation constant (Kd) was 8.05 µM. In addition, the 50% inhibitory concentration (IC50) in assay [3] (Homo sapiens, U-937, PMA-differentiated U937 cells, LPS, 12 h, ELISA) turned out to be 10.3 µM. In addition, the “inhibition of TNFα production induced by LPS and PMA” value in assay [3] is reported as “significantly inhibited”.

For `COc1cccc(-c2cc(=O)c3ccccc3o2)c1N` [PD98059, reference compound], in assay [1] (treated 1 h prior to LPS, dose-dependent), the “effect on up-regulation of ANX A1 release” value is “inhibited”. Besides, in assay [5], the “effect on SC1-induced phosphorylation of ANX A1” value is “suppressed”.
